Values quoted from earlier work, collected in US6635277B2, “Composition for pulsatile delivery of diltiazem and process of manufacture” (Wockhardt Limited, priority 2000, dated 2003).

Conditions: in 0.1N HCl

CCCCCCCCCCCCOS(=O)(=O)[O-].[Na+] [sodium lauryl sulfate]
Fraction ionized: 10%
